Assay [1] addresses T1, Farnesyl pyrophosphate synthase (Rattus norvegicus) (UniProt P05369).
T1 sequence (whole entry): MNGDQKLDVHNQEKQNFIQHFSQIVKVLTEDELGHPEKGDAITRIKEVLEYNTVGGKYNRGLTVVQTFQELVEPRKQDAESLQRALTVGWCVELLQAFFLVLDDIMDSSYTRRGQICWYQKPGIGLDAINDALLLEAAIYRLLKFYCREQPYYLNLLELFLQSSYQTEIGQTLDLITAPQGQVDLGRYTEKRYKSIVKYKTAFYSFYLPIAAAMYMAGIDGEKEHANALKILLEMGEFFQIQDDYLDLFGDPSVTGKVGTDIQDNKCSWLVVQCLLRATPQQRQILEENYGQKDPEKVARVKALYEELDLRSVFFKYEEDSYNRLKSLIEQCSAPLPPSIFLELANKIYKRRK
As to the kind of experiment: Inhibition of rat FPPS expressed in Escherichia coli BL21 (DE3) using GPP and IPP as substrate at 10 uM incubated for 10 mins by microplate reader.

Assay [2] deals with T2, Farnesyl pyrophosphate synthase (Rattus norvegicus, UniProt P05369).
T2 sequence (P05369 whole entry): T1 sequence (whole entry)
As to the kind of experiment: Binding affinity to rat FPPS expressed in Escherichia coli BL21 (DE3) by isothermal titration calorimetry. In general terms: Isothermal titration calorimetry measures the heat released or taken up as one component is titrated into another.

Molecules are shown by their SMILES. pKd: −log10 of the molar value.

What is called inhibition is the drop in the measured response relative to a control, in per cent. Read a high inhibition as strong suppression. In general, pKd refers to −log10 of the Kd, conventionally taken in molar units. Read a low pKd as a high Kd. In turn, `O=C(CC1(O)C(=O)Nc2ccccc21)CC1(O)C(=O)Nc2ccccc21` (stereo not given) yielded an inhibition in assay [1] of 13%. The compound further had a pKd in assay [2] of 3.74.
In the case of `O=Cc1ccc(O[C@@H]2O[C@H](CO)[C@@H](O)[C@H](O)[C@H]2O)cc1`, the inhibition in assay [1] stood at 29.3%. This compound also showed a pKd in assay [2] of 3.48.
Compound `CCC(C)c1ccc(O[C@@H]2O[C@H](CO)[C@@H](O)[C@H](O)[C@H]2NC(C)=O)cc1` (stereo not given in full) showed an inhibition in assay [1] of 25.3%. Besides, the pKd in assay [2] is 3.30.
In assay [1], `CC(=O)N[C@H]1[C@H](OCc2ccccc2)O[C@H](CO)[C@@H](O)[C@@H]1O` showed an inhibition of 29.9%. In assay [2], the pKd is 4.32.
In turn, `CNS(=O)(=O)c1cn(CC(=O)Nc2cc(C)cc(C)c2)cc1S(=O)(=O)NC` registered an inhibition in assay [1] of 23.4%. This compound also showed a pKd in assay [2] of 3.35.

For the origin of these results see ChEMBL document CHEMBL4715844, “Structure-based virtual screening and biological evaluation of novel non-bisphosphonate farnesyl pyrophosphate synthase inhibitors” (Eur J Med Chem, 2020).
